PubChem BioAssay AID2060908 (Molecular Pharmacology Branch, DTP, NCI, 2025)
Values belong to the compound of their own block, whether it stands above or below them.

Test system: 186277-243-T-J2-PDC complex spheroids, viability
Test: Anticancer human tumor 186277-243-T-J2-PDC patient-derived colon adenocarcinoma cell line growth inhibition [RAS]
Conditions: for IC50: curve of first compound; for viability, T/C: stronger effect = lower value
Outline: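 Agents were tested in combination matrices in half-log decrements from a top concentration at or near clinical Cmax (10 microM if undetermined). Targets were multi-cell spheroids of tumour lines plus HUVEC and MSC stromal cells.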

[1] = second compound 0.0316 µM, first compound 0.0316 µM
[2] = second compound 0.0316 µM, first compound 0.1 µM
[3] = second compound 0.0316 µM, first compound 0.316 µM
[4] = second compound 0.0316 µM, first compound 1 µM
[5] = second compound 0.1 µM, first compound 0.0316 µM
[6] = second compound 0.1 µM, first compound 0.1 µM
[7] = second compound 0.1 µM, first compound 0.316 µM
[8] = second compound 0.1 µM, first compound 1 µM
[9] = second compound 0.316 µM, first compound 0.0316 µM
[10] = second compound 0.316 µM, first compound 0.1 µM
[11] = second compound 0.316 µM, first compound 0.316 µM
[12] = second compound 0.316 µM, first compound 1 µM
[13] = second compound 1 µM, first compound 0.0316 µM
[14] = second compound 1 µM, first compound 0.1 µM
[15] = second compound 1 µM, first compound 0.316 µM
[16] = second compound 1 µM, first compound 1 µM
[17] = second compound 3.16 µM, first compound 0.0316 µM
[18] = second compound 3.16 µM, first compound 0.1 µM
[19] = second compound 3.16 µM, first compound 0.316 µM
[20] = second compound 3.16 µM, first compound 1 µM
[21] = second compound 10 µM, first compound 0.0316 µM
[22] = second compound 10 µM, first compound 0.1 µM
[23] = second compound 10 µM, first compound 0.316 µM
[24] = second compound 10 µM, first compound 1 µM
[25] = second compound 0.0316 µM, first compound 0.000949 µM
[26] = second compound 0.0316 µM, first compound 0.003 µM
[27] = second compound 0.0316 µM, first compound 0.00949 µM
[28] = second compound 0.0316 µM, first compound 0.03 µM
[29] = second compound 0.0316 µM, first compound 0.0949 µM
[30] = second compound 0.0316 µM, first compound 0.3 µM
[31] = second compound 0.1 µM, first compound 0.000949 µM
[32] = second compound 0.1 µM, first compound 0.003 µM
[33] = second compound 0.1 µM, first compound 0.00949 µM
[34] = second compound 0.1 µM, first compound 0.03 µM
[35] = second compound 0.1 µM, first compound 0.0949 µM
[36] = second compound 0.1 µM, first compound 0.3 µM
[37] = second compound 0.316 µM, first compound 0.000949 µM
[38] = second compound 0.316 µM, first compound 0.003 µM
[39] = second compound 0.316 µM, first compound 0.00949 µM
[40] = second compound 0.316 µM, first compound 0.03 µM
[41] = second compound 0.316 µM, first compound 0.0949 µM
[42] = second compound 0.316 µM, first compound 0.3 µM
[43] = second compound 1 µM, first compound 0.000949 µM
[44] = second compound 1 µM, first compound 0.003 µM
[45] = second compound 1 µM, first compound 0.00949 µM
[46] = second compound 1 µM, first compound 0.03 µM
[47] = second compound 1 µM, first compound 0.0949 µM
[48] = second compound 1 µM, first compound 0.3 µM
[49] = second compound 3.16 µM, first compound 0.000949 µM
[50] = second compound 3.16 µM, first compound 0.003 µM
[51] = second compound 3.16 µM, first compound 0.00949 µM
[52] = second compound 3.16 µM, first compound 0.03 µM
[53] = second compound 3.16 µM, first compound 0.0949 µM
[54] = second compound 3.16 µM, first compound 0.3 µM
[55] = second compound 10 µM, first compound 0.000949 µM
[56] = second compound 10 µM, first compound 0.003 µM
[57] = second compound 10 µM, first compound 0.00949 µM
[58] = second compound 10 µM, first compound 0.03 µM
[59] = second compound 10 µM, first compound 0.0949 µM
[60] = second compound 10 µM, first compound 0.3 µM
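Also: spheroids exposed to compounds for 7 days before viability read.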

IC50 (second compound 0.0316 µM): > 1000 nM
IC50 (second compound 0.1 µM): 325 nM
IC50 (second compound 0.316 µM): < 3.16 nM
IC50 (second compound 1 µM): < 3.16 nM
IC50 (second compound 3.16 µM): < 3.16 nM
IC50 (second compound 10 µM): < 3.16 nM
SMILES: C=CC(=O)N1CCN(c2nc(OCC3CCCN3C)nc3c(F)c(-c4nc(N)cc(C)c4C(F)(F)F)c(Cl)cc23)C(C)C1 (stereo not drawn) + C#Cc1c(F)ccc2cc(O)cc(-c3ncc4c(N5CC6CCC(C5)N6)nc(OCC56CCCN5CC(F)C6)nc4c3F)c12
viability, T/C (second compound 0.0316 µM, first compound 0.00316 µM): 75.1%
viability, T/C (second compound 0.0316 µM, first compound 0.01 µM): 97.6%
viability, T/C [1]: 84.3%
viability, T/C [2]: 78.3%
viability, T/C [3]: 79.5%
viability, T/C [4]: 54.6%
viability, T/C (second compound 0.1 µM, first compound 0.00316 µM): 69.6%
viability, T/C (second compound 0.1 µM, first compound 0.01 µM): 73.7%
viability, T/C [5]: 60.4%
viability, T/C [6]: 58.4%
viability, T/C [7]: 53.1%
viability, T/C [8]: 35.8%
viability, T/C (second compound 0.316 µM, first compound 0.00316 µM): 24.2%
viability, T/C (second compound 0.316 µM, first compound 0.01 µM): 35.7%
viability, T/C [9]: 37.8%
viability, T/C [10]: 25.2%
viability, T/C [11]: 33.2%
viability, T/C [12]: 24.2%
viability, T/C (second compound 1 µM, first compound 0.00316 µM): 18.1%
viability, T/C (second compound 1 µM, first compound 0.01 µM): 19.1%
viability, T/C [13]: 19.1%
viability, T/C [14]: 18.6%
viability, T/C [15]: 19%
viability, T/C [16]: 15.5%
viability, T/C (second compound 3.16 µM, first compound 0.00316 µM): 9.97%
viability, T/C (second compound 3.16 µM, first compound 0.01 µM): 14.1%
viability, T/C [17]: 12.5%
viability, T/C [18]: 13.3%
viability, T/C [19]: 15.5%
viability, T/C [20]: 10.9%
viability, T/C (second compound 10 µM, first compound 0.00316 µM): 8.29%
viability, T/C (second compound 10 µM, first compound 0.01 µM): 9.21%
viability, T/C [21]: 11.5%
viability, T/C [22]: 11%
viability, T/C [23]: 11.3%
viability, T/C [24]: 8.56%

IC50 (second compound 0.0316 µM): < 31.6 nM
IC50 (second compound 0.1 µM): < 31.6 nM
IC50 (second compound 0.316 µM): < 31.6 nM
IC50 (second compound 1 µM): < 31.6 nM
IC50 (second compound 3.16 µM): < 31.6 nM
IC50 (second compound 10 µM): < 31.6 nM
SMILES: CC(=O)OC12COC1CC(O)C1(C)C(=O)C(O)C3=C(C)C(OC(=O)C(O)C(NC(=O)OC(C)(C)C)c4ccccc4)CC(O)(C(OC(=O)c4ccccc4)C21)C3(C)C (stereo not drawn) + C#Cc1c(F)ccc2cc(O)cc(-c3ncc4c(N5CC6CCC(C5)N6)nc(OCC56CCCN5CC(F)C6)nc4c3F)c12
viability, T/C [1]: 5.3%
viability, T/C [2]: 5.14%
viability, T/C [3]: 5.59%
viability, T/C [4]: 4.15%
viability, T/C (second compound 0.0316 µM, first compound 3.16 µM): 5.04%
viability, T/C (second compound 0.0316 µM, first compound 10 µM): 4.9%
viability, T/C [5]: 6.01%
viability, T/C [6]: 5.73%
viability, T/C [7]: 4.94%
viability, T/C [8]: 4.03%
viability, T/C (second compound 0.1 µM, first compound 3.16 µM): 5.26%
viability, T/C (second compound 0.1 µM, first compound 10 µM): 3.53%
viability, T/C [9]: 5.77%
viability, T/C [10]: 4.92%
viability, T/C [11]: 4.48%
viability, T/C [12]: 4.42%
viability, T/C (second compound 0.316 µM, first compound 3.16 µM): 4.75%
viability, T/C (second compound 0.316 µM, first compound 10 µM): 5%
viability, T/C [13]: 4.79%
viability, T/C [14]: 5.04%
viability, T/C [15]: 4.17%
viability, T/C [16]: 4.69%
viability, T/C (second compound 1 µM, first compound 3.16 µM): 5.21%
viability, T/C (second compound 1 µM, first compound 10 µM): 4.15%
viability, T/C [17]: 3.84%
viability, T/C [18]: 4.36%
viability, T/C [19]: 4.81%
viability, T/C [20]: 3.94%
viability, T/C (second compound 3.16 µM, first compound 3.16 µM): 4.59%
viability, T/C (second compound 3.16 µM, first compound 10 µM): 3.53%
viability, T/C [21]: 4.68%
viability, T/C [22]: 3.75%
viability, T/C [23]: 4.17%
viability, T/C [24]: 4.45%
viability, T/C (second compound 10 µM, first compound 3.16 µM): 4.43%
viability, T/C (second compound 10 µM, first compound 10 µM): 3.61%

IC50 (second compound 0.0316 µM): 69.8 nM
IC50 (second compound 0.1 µM): 12.1 nM
IC50 (second compound 0.316 µM): < 0.949 nM
IC50 (second compound 1 µM): < 0.949 nM
IC50 (second compound 3.16 µM): < 0.949 nM
IC50 (second compound 10 µM): < 0.949 nM
SMILES: CC1(C)CCC(Nc2ncc(C(F)(F)F)c(-c3c[nH]c4c(P(C)(C)=O)c(C#N)ccc34)n2)CN1 (stereo not drawn) + C#Cc1c(F)ccc2cc(O)cc(-c3ncc4c(N5CC6CCC(C5)N6)nc(OCC56CCCN5CC(F)C6)nc4c3F)c12
viability, T/C [25]: 91.9%
viability, T/C [26]: 80.4%
viability, T/C [27]: 60.4%
viability, T/C [28]: 55.8%
viability, T/C [29]: 51.8%
viability, T/C [30]: 40.9%
viability, T/C [31]: 50%
viability, T/C [32]: 67.4%
viability, T/C [33]: 55.4%
viability, T/C [34]: 29%
viability, T/C [35]: 34.5%
viability, T/C [36]: 26.1%
viability, T/C [37]: 27.9%
viability, T/C [38]: 29.9%
viability, T/C [39]: 23%
viability, T/C [40]: 15.9%
viability, T/C [41]: 15.2%
viability, T/C [42]: 17.2%
viability, T/C [43]: 15.6%
viability, T/C [44]: 16.5%
viability, T/C [45]: 13%
viability, T/C [46]: 13.9%
viability, T/C [47]: 12.4%
viability, T/C [48]: 11.5%
viability, T/C [49]: 12.4%
viability, T/C [50]: 11.7%
viability, T/C [51]: 11%
viability, T/C [52]: 12.5%
viability, T/C [53]: 11.2%
viability, T/C [54]: 8.62%
viability, T/C [55]: 8.95%
viability, T/C [56]: 9.05%
viability, T/C [57]: 7.62%
viability, T/C [58]: 6.45%
viability, T/C [59]: 9.73%
viability, T/C [60]: 7.54%

IC50 (second compound 0.0316 µM): 2.64 nM
IC50 (second compound 0.1 µM): < 0.949 nM
IC50 (second compound 0.316 µM): < 0.949 nM
IC50 (second compound 1 µM): < 0.949 nM
IC50 (second compound 3.16 µM): < 0.949 nM
IC50 (second compound 10 µM): < 0.949 nM
SMILES: CCc1c2c(nc3ccc(O)cc13)-c1cc3c(c(=O)n1C2)COC(=O)[C@]3(O)CC + C#Cc1c(F)ccc2cc(O)cc(-c3ncc4c(N5CC6CCC(C5)N6)nc(OCC56CCCN5CC(F)C6)nc4c3F)c12
viability, T/C [25]: 72.5%
viability, T/C [26]: 40.5%
viability, T/C [27]: 36.7%
viability, T/C [28]: 20.9%
viability, T/C [29]: 8.73%
viability, T/C [30]: 5.87%
viability, T/C [31]: 35.5%
viability, T/C [32]: 21.9%
viability, T/C [33]: 16.6%
viability, T/C [34]: 12.2%
viability, T/C [35]: 5.42%
viability, T/C [36]: 6.04%
viability, T/C [37]: 14.3%
viability, T/C [38]: 14.1%
viability, T/C [39]: 9.89%
viability, T/C [40]: 7.42%
viability, T/C [41]: 5.03%
viability, T/C [42]: 3.68%
viability, T/C [43]: 7.55%
viability, T/C [44]: 8.61%
viability, T/C [45]: 8.45%
viability, T/C [46]: 6.92%
viability, T/C [47]: 4.24%
viability, T/C [48]: 3.83%
viability, T/C [49]: 8.46%
viability, T/C [50]: 7.85%
viability, T/C [51]: 7.31%
viability, T/C [52]: 5.89%
viability, T/C [53]: 4.55%
viability, T/C [54]: 2.75%
viability, T/C [55]: 6.68%
viability, T/C [56]: 6.39%
viability, T/C [57]: 6.05%
viability, T/C [58]: 5.42%
viability, T/C [59]: 3.58%
viability, T/C [60]: 2.72%
